Experimental data reported in ChEMBL document CHEMBL3994622, “Design and synthesis of new RAF kinase-inhibiting antiproliferative quinoline derivatives. Part 2: Diarylurea derivatives” (Eur J Med Chem, 2017).

Key:
HL-60(TB) = assay: Growth inhibition of human HL-60(TB) cells assessed as cell growth at 0.05 uM incubated for 48 hrs by sulforhodamine B assay relative to control; assay type: functional; details: HL-60, 48 h, read-out: Activity
SF-295 [1] = assay: Growth inhibition of human SF295 cells assessed as cell growth at 0.005 uM incubated for 48 hrs by sulforhodamine B assay relative to control; assay type: functional; details: SF-295, 48 h, read-out: Activity
SF-539 = assay: Growth inhibition of human SF539 cells assessed as cell growth at 0.005 uM incubated for 48 hrs by sulforhodamine B assay relative to control; assay type: functional; details: SF-539, 48 h, read-out: Activity
SNB-75 [2] = assay: Growth inhibition of human SNB75 cells assessed as cell growth at 0.005 uM incubated for 48 hrs by sulforhodamine B assay relative to control; assay type: functional; details: SNB-75, 48 h, read-out: Activity
A498 = assay: Growth inhibition of human A498 cells assessed as cell growth at 0.005 uM incubated for 48 hrs by sulforhodamine B assay relative to control; assay type: functional; details: A498, 48 h, read-out: Activity
TK-10 = assay: Growth inhibition of human TK10 cells assessed as cell growth at 0.005 uM incubated for 48 hrs by sulforhodamine B assay relative to control; assay type: functional; details: TK-10, 48 h, read-out: Activity
Hs-578T [3] = assay: Growth inhibition of human Hs 578T cells assessed as cell growth at 0.005 uM incubated for 48 hrs by sulforhodamine B assay relative to control; assay type: functional; details: read-out: Activity
BT-549 [4] = assay: Growth inhibition of human BT549 cells assessed as cell growth at 0.005 uM incubated for 48 hrs by sulforhodamine B assay relative to control; assay type: functional; details: BT-549, 48 h, read-out: Activity
SR = assay: Growth inhibition of human SR cells assessed as cell growth at 0.05 uM incubated for 48 hrs by sulforhodamine B assay relative to control; assay type: functional; details: read-out: Activity
SNB-75 [5] = assay: Growth inhibition of human SNB75 cells assessed as cell growth at 0.05 uM incubated for 48 hrs by sulforhodamine B assay relative to control; assay type: functional; details: SNB-75, 48 h, read-out: Activity
Malme-3M = assay: Growth inhibition of human MALME-3M cells assessed as cell growth at 0.05 uM incubated for 48 hrs by sulforhodamine B assay relative to control; assay type: functional; details: read-out: Activity
SK-MEL-5 = assay: Growth inhibition of human SK-MEL-5 cells assessed as cell growth at 0.05 uM incubated for 48 hrs by sulforhodamine B assay relative to control; assay type: functional; details: SK-MEL-5, 48 h, read-out: Activity
UACC-62 = assay: Growth inhibition of human UACC62 cells assessed as cell growth at 0.05 uM incubated for 48 hrs by sulforhodamine B assay relative to control; assay type: functional; details: UACC-62, 48 h, read-out: Activity
SN12C = assay: Growth inhibition of human SN12C cells assessed as cell growth at 0.05 uM incubated for 48 hrs by sulforhodamine B assay relative to control; assay type: functional; details: read-out: Activity
UO-31 [6] = assay: Growth inhibition of human UO31 cells assessed as cell growth at 0.05 uM incubated for 48 hrs by sulforhodamine B assay relative to control; assay type: functional; details: UO-31, 48 h, read-out: Activity
Hs-578T [7] = assay: Growth inhibition of human Hs 578T cells assessed as cell growth at 0.05 uM incubated for 48 hrs by sulforhodamine B assay relative to control; assay type: functional; details: read-out: Activity
MOLT-4 [8] = assay: Growth inhibition of human MOLT4 cells assessed as cell growth at 0.5 uM incubated for 48 hrs by sulforhodamine B assay relative to control; assay type: functional; details: MOLT-4, 48 h, read-out: Activity
COLO 205 = assay: Growth inhibition of human COLO205 cells assessed as cell growth at 0.5 uM incubated for 48 hrs by sulforhodamine B assay relative to control; assay type: functional; details: COLO 205, 48 h, read-out: Activity
HT-29 = assay: Growth inhibition of human HT-29 cells assessed as cell growth at 0.5 uM incubated for 48 hrs by sulforhodamine B assay relative to control; assay type: functional; details: HT-29, 48 h, read-out: Activity
KM12 = assay: Growth inhibition of human KM12 cells assessed as cell growth at 0.5 uM incubated for 48 hrs by sulforhodamine B assay relative to control; assay type: functional; details: KM12, 48 h, read-out: Activity
ACHN = assay: Growth inhibition of human ACHN cells assessed as cell growth at 0.5 uM incubated for 48 hrs by sulforhodamine B assay relative to control; assay type: functional; details: read-out: Activity
CAKI-1 = assay: Growth inhibition of human Caki1 cells assessed as cell growth at 0.5 uM incubated for 48 hrs by sulforhodamine B assay relative to control; assay type: functional; details: CAKI-1, 48 h, read-out: Activity
MOLT-4 [9] = assay: Growth inhibition of human MOLT4 cells assessed as cell growth at 5 uM incubated for 48 hrs by sulforhodamine B assay relative to control; assay type: functional; details: MOLT-4, 48 h, read-out: Activity
NCI-H322M [10] = assay: Growth inhibition of human NCI-H322M cells assessed as cell growth at 5 uM incubated for 48 hrs by sulforhodamine B assay relative to control; assay type: functional; details: read-out: Activity
SNB-19 = assay: Growth inhibition of human SNB19 cells assessed as cell growth at 5 uM incubated for 48 hrs by sulforhodamine B assay relative to control; assay type: functional; details: SNB-19, 48 h, read-out: Activity
SK-MEL-2 = assay: Growth inhibition of human SK-MEL-2 cells assessed as cell growth at 5 uM incubated for 48 hrs by sulforhodamine B assay relative to control; assay type: functional; details: SK-MEL-2, 48 h, read-out: Activity
UO-31 [11] = assay: Growth inhibition of human UO31 cells assessed as cell growth at 5 uM incubated for 48 hrs by sulforhodamine B assay relative to control; assay type: functional; details: UO-31, 48 h, read-out: Activity
BT-549 [12] = assay: Growth inhibition of human BT549 cells assessed as cell growth at 5 uM incubated for 48 hrs by sulforhodamine B assay relative to control; assay type: functional; details: BT-549, 48 h, read-out: Activity
RPMI-8226 = assay: Growth inhibition of human RPMI8226 cells assessed as cell growth at 50 uM incubated for 48 hrs by sulforhodamine B assay relative to control; assay type: functional; details: RPMI-8226, 48 h, read-out: Activity
NCI-H322M [13] = assay: Growth inhibition of human NCI-H322M cells assessed as cell growth at 50 uM incubated for 48 hrs by sulforhodamine B assay relative to control; assay type: functional; details: read-out: Activity
SW-620 = assay: Growth inhibition of human SW620 cells assessed as cell growth at 50 uM incubated for 48 hrs by sulforhodamine B assay relative to control; assay type: functional; details: SW-620, 48 h, read-out: Activity
SF-295 [14] = assay: Growth inhibition of human SF295 cells assessed as cell growth at 50 uM incubated for 48 hrs by sulforhodamine B assay relative to control; assay type: functional; details: SF-295, 48 h, read-out: Activity
OVCAR-4 = assay: Growth inhibition of human OVCAR4 cells assessed as cell growth at 50 uM incubated for 48 hrs by sulforhodamine B assay relative to control; assay type: functional; details: OVCAR-4, 48 h, read-out: Activity
[15] = target: Mitogen-activated protein kinase 1 (Homo sapiens) (UniProt P28482); assay: Inhibition of human ERK2 at 10 uM using myelin basic protein as substrate in presence of [33P]ATP by Hotspot assay relative to control
EKVX = assay: Growth inhibition of human EKVX cells assessed as cell growth at 30 uM incubated for 48 hrs by sulforhodamine B assay relative to control; assay type: functional; details: read-out: Activity

Chain of Mitogen-activated protein kinase 1 (Homo sapiens) (P28482 whole entry): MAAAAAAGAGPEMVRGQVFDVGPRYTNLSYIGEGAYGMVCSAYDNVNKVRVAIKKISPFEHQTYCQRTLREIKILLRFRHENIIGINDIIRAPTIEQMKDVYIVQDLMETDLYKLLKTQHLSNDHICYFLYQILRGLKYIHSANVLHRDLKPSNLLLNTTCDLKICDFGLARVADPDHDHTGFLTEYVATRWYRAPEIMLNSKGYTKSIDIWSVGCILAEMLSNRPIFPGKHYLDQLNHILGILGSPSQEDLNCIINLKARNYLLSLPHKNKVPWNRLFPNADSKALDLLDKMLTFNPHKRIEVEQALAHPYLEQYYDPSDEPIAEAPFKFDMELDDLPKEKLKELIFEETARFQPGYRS

COc1cc2cc(Oc3ccc(NC(=O)Nc4cccc(C(F)(F)F)c4)cc3)c(C)nc2cc1OC gave a growth at 0.05 µM (HL-60(TB)) of 101%, a growth at 0.005 µM (SF-295 [1]) of 90% and a growth at 0.005 µM (SF-539) of 104%. For the same molecule, the growth at 0.005 µM (SNB-75 [2]) was 79%, the growth at 0.005 µM (A498) was 113% and the growth at 0.005 µM (TK-10) was 92%. For the same molecule, the growth at 0.005 µM (Hs-578T [3]) was 90%, the growth at 0.005 µM (BT-549 [4]) was 96% and the growth at 0.05 µM (SR) was 93%. For the same molecule, the growth at 0.05 µM (SNB-75 [5]) was 99%, the growth at 0.05 µM (Malme-3M) was 96% and the growth at 0.05 µM (SK-MEL-5) was 92%. For the same molecule, the growth at 0.05 µM (UACC-62) was 94%, the growth at 0.05 µM (SN12C) was 97% and the growth at 0.05 µM (UO-31 [6]) was 91%. The growth at 0.05 µM (Hs-578T [7]) was 100%, the growth at 0.5 µM (MOLT-4 [8]) was 95% and the growth at 0.5 µM (COLO 205) was 102%. For the same molecule, the growth at 0.5 µM (HT-29) was 112%, the growth at 0.5 µM (KM12) was 88% and the growth at 0.5 µM (ACHN) was 95%. The growth at 0.5 µM (CAKI-1) was 91%, the growth at 5 µM (MOLT-4 [9]) was 4% and the growth at 5 µM (NCI-H322M [10]) was 31%. The growth at 5 µM (SNB-19) was 24%, the growth at 5 µM (SK-MEL-2) was -34% and the growth at 5 µM (UO-31 [11]) was 12%. For the same molecule, the growth at 5 µM (BT-549 [12]) was 7%, the growth at 50 µM (RPMI-8226) was -47% and the growth at 50 µM (NCI-H322M [13]) was -29%. For the same molecule, the growth at 50 µM (SW-620) was -37%, the growth at 50 µM (SF-295 [14]) was -63% and the growth at 50 µM (OVCAR-4) was -63%.
For COc1cc2cc(Oc3ccc(NC(=O)Nc4ccc(Cl)c(C(F)(F)F)c4)cc3)c(C)nc2cc1OC, the inhibition [15] was 1.04% and the growth at 30 µM (EKVX) was -70%.
